Measurements taken from ChEMBL document CHEMBL4665867, “Design and synthesis of analogues of the sphingosine-1-phosphate receptor 1 agonist IMMH001 with improved phosphorylation rate in human blood” (Bioorg Med Chem, 2020).

Legend:
Type in all cases: ADME, tissue-based
Sphingosine kinase 1/2 [1] = target: T1, Sphingosine kinase 1/2 (Homo sapiens, UniProt Q9NRA0+Q9NYA1); test: Prodrug conversion in human blood assessed as SPHK1/SPHK2-mediated compound phosphorylation by measuring Km by LC-MS/MS analysis
Sphingosine kinase 1/2 [2] = target: T1, Sphingosine kinase 1/2; test: Prodrug conversion in human blood assessed as SPHK1/SPHK2-mediated compound phosphorylation by measuring intrinsic clearance by LC-MS/MS analysis
Sphingosine kinase 1/2 [3] = target: T2, Sphingosine kinase 1/2 (Rattus norvegicus, UniProt Q91V26+A6JB73); test: Prodrug conversion in rat blood assessed as SPHK1/SPHK2-mediated compound phosphorylation by measuring Vmax by LC-MS/MS analysis
Sphingosine kinase 1/2 [4] = target: T2, Sphingosine kinase 1/2; test: Prodrug conversion in rat blood assessed as SPHK1/SPHK2-mediated compound phosphorylation by measuring intrinsic clearance by LC-MS/MS analysis
Sphingosine kinase 1/2 [5] = target: T2, Sphingosine kinase 1/2; test: Prodrug conversion in rat blood assessed as SPHK1/SPHK2-mediated compound phosphorylation by measuring Km by LC-MS/MS analysis
Sphingosine kinase 1/2 [6] = target: T1, Sphingosine kinase 1/2; test: Prodrug conversion in human blood assessed as SPHK1/SPHK2-mediated compound phosphorylation by measuring Vmax by LC-MS/MS analysis

Row | Km (Sphingosine kinase 1/2 [1]) [µM] | CL (Sphingosine kinase 1/2 [2]) [µL/min] | Vmax (Sphingosine kinase 1/2 [3]) [pmol/min] | CL (Sphingosine kinase 1/2 [4]) [µL/min] | Km (Sphingosine kinase 1/2 [5]) [µM] | Vmax (Sphingosine kinase 1/2 [6]) [pmol/min] | SMILES
1 | 42.62 | 0.012 | 37.24 | 0.437 | 85.25 | 0.53 | CCCc1nc(-c2ccc(-c3ccc(CCC(N)(CO)CO)cc3)cc2)co1.Cl
2 | 86.55 | 0.025 | 4.13 | 0.175 | 23.6 | 2.15 | CCCc1nc(-c2ccc(-c3ccc(CC[C@@](C)(N)CO)cc3)cc2)co1.Cl
3 | 54.12 | 0.049 | 16.15 | 0.334 | 48.37 | 2.63 | CCCc1nc(-c2ccc(-c3ccc(CC[C@@H](N)CO)cc3)cc2)co1.Cl
4 | 23.7 | 0.013 | 61.3 | 0.95 | 64.6 | 0.31 | CCCCCCCCc1ccc(CCC(N)(CO)CO)cc1.Cl [FINGOLIMOD HYDROCHLORIDE]
